Assay results published in US10507184B2, “Implantable Naltrexone tablets” (RUSAN PHARMA LIMITED, priority 2015, dated 2019).

Assay: Drug solubility versus pH
Type: physicochemical
Settings: pH above 7.4
Description: Media provides sink conditions for maximum release of the drug from pharmaceutical system as well as aids in solubilization of drug for release; therefore, proper selection of media can be important. Media of different pH was used for selection of the correct media for dissolution of the naltrexone implantable tablets. The following five dissolution media were used from pH ranging from 1.2 to 7.4. The pH above 7.4 was not used, as the drug solubility is reduced at pH above 7.4.

Compound: O=C1CC[C@@]2(O)[C@H]3Cc4ccc(O)c5c4[C@@]2(CCN3CC2CC2)[C@H]1O5 [Naltrexone, 17-(cyclopropylmethyl)-4,5α-epoxy-3,14-dihydroxymorphinan-6-one]
- drug solubility: reduced
